In ChEMBL document CHEMBL3352417, “Confronting the challenges of discovery of novel antibacterial agents” (Bioorg Med Chem Lett, 2014):
Converted amounts (≈) assume the structure as drawn.

Legend:
[1] = Inhibition of beta-lactamase (unknown origin)
[2] = system: Staphylococcus aureus; experiment: Antimicrobial activity against Staphylococcus aureus; assay type: functional
[3] = system: Streptococcus pneumoniae; experiment: Antimicrobial activity against Streptococcus pneumoniae; assay type: functional
[4] = biological target: Voltage-gated inwardly rectifying potassium channel KCNH2 (Homo sapiens, UniProt Q12809); experiment: Inhibition of human ERG
Voltage-gated inwardly rectifying potassium channel KCNH2, sequence (Q12809 whole entry): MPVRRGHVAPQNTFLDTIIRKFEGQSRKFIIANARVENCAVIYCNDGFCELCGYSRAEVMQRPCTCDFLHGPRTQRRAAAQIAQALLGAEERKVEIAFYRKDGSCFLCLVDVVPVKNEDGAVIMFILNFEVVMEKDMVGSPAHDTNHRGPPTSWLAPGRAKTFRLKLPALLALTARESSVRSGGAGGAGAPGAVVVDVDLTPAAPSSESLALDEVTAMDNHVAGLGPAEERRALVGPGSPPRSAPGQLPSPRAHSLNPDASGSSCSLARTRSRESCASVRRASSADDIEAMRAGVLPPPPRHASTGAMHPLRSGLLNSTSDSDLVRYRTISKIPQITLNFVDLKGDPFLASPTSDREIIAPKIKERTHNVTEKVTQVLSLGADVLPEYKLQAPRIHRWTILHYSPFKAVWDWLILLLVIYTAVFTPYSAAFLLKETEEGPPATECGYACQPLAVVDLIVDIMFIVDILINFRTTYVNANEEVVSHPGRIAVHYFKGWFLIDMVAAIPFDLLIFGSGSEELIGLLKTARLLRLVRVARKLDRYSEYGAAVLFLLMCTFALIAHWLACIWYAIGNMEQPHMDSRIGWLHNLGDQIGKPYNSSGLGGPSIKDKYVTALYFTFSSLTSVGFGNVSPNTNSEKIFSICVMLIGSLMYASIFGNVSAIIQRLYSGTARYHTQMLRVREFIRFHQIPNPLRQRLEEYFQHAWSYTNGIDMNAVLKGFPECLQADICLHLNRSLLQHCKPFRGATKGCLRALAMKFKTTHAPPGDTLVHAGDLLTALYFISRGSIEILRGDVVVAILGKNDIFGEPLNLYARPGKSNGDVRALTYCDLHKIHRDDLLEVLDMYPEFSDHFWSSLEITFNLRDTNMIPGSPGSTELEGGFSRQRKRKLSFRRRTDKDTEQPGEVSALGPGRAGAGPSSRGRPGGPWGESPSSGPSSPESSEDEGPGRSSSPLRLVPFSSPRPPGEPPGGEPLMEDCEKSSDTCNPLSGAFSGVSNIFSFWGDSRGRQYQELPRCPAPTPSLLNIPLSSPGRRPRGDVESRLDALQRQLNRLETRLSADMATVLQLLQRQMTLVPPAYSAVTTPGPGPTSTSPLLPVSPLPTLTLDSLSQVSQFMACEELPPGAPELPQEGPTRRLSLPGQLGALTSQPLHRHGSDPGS

[5] = Inhibition of Enterococcus faecalis DNA gyrase subunit B
[6] = Inhibition of Enterococcus faecalis ParE

O=C(O)C[C@@H]1CC[C@H](NC(=O)Cc2cccs2)B(O)O1 [VABORBACTAM]
IC50 [1]: 0.009 µM

O=c1ccc2ncc(=O)n3c2n1C[C@H]3CN1CCC(NCc2cc3c(cn2)OCCC3)CC1 [GEPOTIDACIN]
MIC90 [2]: 0.5 µg/mL (≈ 1.11 µM)
MIC90 [3]: 0.25 µg/mL (≈ 0.557 µM)
IC50 [4]: 1400 µM

CNc1cc(F)cc2c1[nH]c1nc(Oc3cnc(C)nc3)nc(N3CC4[C@H](N)C[C@]4(C)C3)c12 (stereo partly specified)
IC50 [5]: < 0.0003 µM
IC50 [6]: < 0.0003 µM
